# Where two headings read alike, the source gives them in different places.
# Tests used:
# [1] = tested on: S. coelicolor 1147 and drug-resistant mutants; test: Resistance level to antibiotics on GYM agar (Table 2); type: cell-based, Streptomyces coelicolor; conditions: 4 days on GYM agar
# [2] = tested on: Bacillus cereus No. 2045 and mutants; test: Resistance level to gentamicin and rifampicin (Table 4); type: cell-based
# Description: A gentamicin-resistant mutant and a rifampicin-and gentamicin-resistant mutant of Bacillus cereus No. 2045 were produced according to a similar manner to that of Examples 1, 2 or 3. Those mutants were precultured in bouillon medium for 10 h. Cells (0.1 ml) were inoculated into 5 ml of production medium consisting of (per liter) 20 g of polypeptone, 20 g of corn steep liquor, and 5 g of NaCl (adjusted to pH 7.5 with NaOH) for 2 days at 30° C.
# [3] = tested on: S. coelicolor 1147 (wild type) and mutants S-1, SG-1, SG-2; test: MIC of antibiotics on GYM agar (screening of drug-resistant mutants); type: cell-based, Streptomyces coelicolor; conditions: for Concentration at which growth was inhibited completely: GYM agar; for MIC: 2 days of incubation on GYM agar
# Description: The spontaneous streptomycin, gentamicin or rifampicin-resistant mutants of S. coelicolor were obtained as the colonies that grew within 7 days at 30° C. after spores (or cells) were spread on GYM agar (composition is the same as the above GYM agar) containing 5 μg streptomycin per ml or 1.0 μg of gentamicin per ml or 200 μg of rifampicin per ml, respectively (Growth of parental strain was inhibited completely with 1 μg of streptomycin per ml, 0.1 μg of gentamicin per ml or 10 μg of rifampicin per ml). The single colonies grew on screening plates were picked out and inoculated to R4 agar containing 1% of glucose, 0.1% of yeast extract, 0.001% of Casamino Acids, 0.3% of proline, 1% of MgCl2·6H2O, 0.4% of CaCl2·2H2O, 0.002% of K2SO4, 0.56% of TES [N-Tris (hydroxymethyl)methyl-2-aminoethanesulfonic acid], 0.2% of trace elements solution (as described for R2YE medium) and 2% of agar (before adding agar, adjusted to pH 7.2). The R4 plates were incubated at 30° C. for 6 days and the amount of blue pigment actinorhodin produced was compared among wild type strain and mutants, and selected the over-producers among the mutants. Then, the mutants with over-producing actinorhodin were inoculated into R4 liquid medium (composition is the same as the R4 agar, but no agar) in 25 ml of test tubes containing 5 ml medium on an orbital shaker at 30° C., 350 rpm. After incubation for 6 days, 1 ml culture samples were taken and adjusted pH to 8.0. After centrifugation at 1100 g for 5 min., actinorhodin production in supernatants was assayed by measurement of the optical density of supernatants at 633 nm. The highest productivity detected reached 1.6-fold for gentamicin-resistant mutants, 1.8-fold for streptomycin-resistant mutants and 3.0-fold for rifampicin-resistant mutants. The frequencies for such high producers were 5%, 6% and 10%, respectively (see Table 1 and FIG. 7).
# The spontaneous geneticin, gentamicin or rifampicin-resistant mutants of S-1 were obtained as colonies that grew on GYM agar containing 2.5 μg of geneticin per ml or 2.5 μg of gentamicin per ml or 200 μg of rifampicin per ml. (Growth of S-1 strain was inhibited completely with 0.5 μg of geneticin per ml, 0.5 μg of gentamicin per ml or 10 μg of rifampicin per ml.). Actinorhodin productivity of mutants was examined using R4 agar plates and R4 liquid medium.
# The spontaneous rifampicin-resistant mutants of SG-1 and SG-2 strains were obtained as colonies that grew on GYM agar containing 200 μg of rifampicin per ml.
# [4] = tested on: Streptomyces lividans 66 and mutants; test: Resistance level to rifampicin and streptomycin (Table 5); type: cell-based
# Source text: A rifampicin-resistant mutant and a streptomycin-and rifampicin-resistant mutant of Streptomyces lividans 66 were produced according to a similar manner to that of Examples 1, 2 or 3, and the actinorhodin production was estimated.
# [5] = strain B. cereus No. 2045, wild-type
# [6] = parental strain (S. coelicolor wild type)
# [7] = Streptomyces coelicolor, 48 h, strain S. coelicolor 1147 (wild type), read-out: MIC
# [8] = strain S. lividans 66, wild-type
compound,measurement,setting,value
gentamicin,Resistance level,[1]; strain 1147 (wild type),0.1 µg/mL
same,Resistance level,[1]; strain G-1,0.3 µg/mL
same,Resistance level,[1]; strain G-2,0.3 µg/mL
same,Resistance level,[1]; strain G-3,0.3 µg/mL
same,Resistance level,[1]; strain SG-1,0.3 µg/mL
same,Resistance level,[1]; strain SG-2,0.3 µg/mL
same,Resistance level,[1]; strain SG-3,0.3 µg/mL
same,Resistance level,[1]; strain SGR-1,0.2 µg/mL
same,Resistance level,[1]; strain SGR-2,0.2 µg/mL
same,Resistance level,[1]; strain SGR-3,0.3 µg/mL
same,Resistance level,[1]; strain SGR-4,0.2 µg/mL
same,Resistance level,[1]; strain SGR-5,0.5 µg/mL
same,Resistance level,[1]; strain SGR-6,0.3 µg/mL
same,Resistance level,[2]; [5],0.8 µg/mL
same,Resistance level,[2]; strain BG-1 (gen),4.0 µg/mL
same,Resistance level,[2]; strain BG-2 (gen),4.0 µg/mL
same,Resistance level,[2]; strain BG-3 (gen),4.5 µg/mL
same,Resistance level,[2]; strain BGR-1 (gen-rif),4.5 µg/mL
same,Resistance level,[2]; strain BGR-2 (gen-rif),5.0 µg/mL
same,Resistance level,[2]; strain BGR-3 (gen-rif),5.0 µg/mL
same,Concentration at which growth was inhibited completely,[3]; S-1 strain,0.5 μg per ml
same,Concentration at which growth was inhibited completely,[3]; [6],0.1 μg per ml
same,MIC,[3]; strain S-1 (str),Gentamicin(0.1) μg/ml
same,MIC,[3]; strain S. coelicolor 1147 (wild type),Gentamicin (0.1) μg/ml
"CN[C@@H]1[C@@H](O)[C@@H](O[C@@H]2[C@@H](O)[C@H](O[C@H]3O[C@H]([C@@H](C)O)[C@@H](O)[C@H](O)[C@H]3N)[C@@H](N)C[C@H]2N)OC[C@]1(C)O [Geneticin, geneticin]",Resistance level,[1]; strain 1147 (wild type),0.2 µg/mL
same,Resistance level,[1]; strain SGe-1,0.5 µg/mL
same,Resistance level,[1]; strain SGe-2,1 µg/mL
same,Resistance level,[1]; strain SGe-3,1 µg/mL
same,Concentration at which growth was inhibited completely,[3]; S-1 strain,0.5 μg per ml
same,MIC,"[3]; Streptomyces coelicolor, 48 h, strain S-1 (str), read-out: MIC",0.2 µg/mL
"CO[C@H]1/C=C/O[C@@]2(C)Oc3c(C)c(O)c4c(O)c(c(/C=N/N5CCN(C)CC5)c(O)c4c3C2=O)NC(=O)/C(C)=C\C=C\[C@H](C)[C@H](O)[C@@H](C)[C@@H](O)[C@@H](C)[C@H](OC(C)=O)[C@@H]1C [Rifampicin, rifampicin]",Resistance level,[1]; S. coelicolor strain SR-1,50 µg/mL
same,Resistance level,[1]; S. coelicolor strain SR-2,150 µg/mL
same,Resistance level,[1]; S. coelicolor strain SR-3,400 µg/mL
same,Resistance level,[1]; strain 1147 (wild type),10 µg/mL
same,Resistance level,[1]; strain R-1,400 µg/mL
same,Resistance level,[1]; strain R-2,400 µg/mL
same,Resistance level,[1]; strain R-3,400 µg/mL
same,Resistance level,[1]; strain SGR-1,400 µg/mL
same,Resistance level,[1]; strain SGR-2,400 µg/mL
same,Resistance level,[1]; strain SGR-3,300 µg/mL
same,Resistance level,[1]; strain SGR-4,400 µg/mL
same,Resistance level,[1]; strain SGR-5,400 µg/mL
same,Resistance level,[1]; strain SGR-6,300 µg/mL
same,Resistance level,[1]; strain SR-4,400 µg/mL
same,Resistance level,[1]; strain SR-5,400 µg/mL
same,Resistance level,[1]; strain SR-6,400 µg/mL
same,Resistance level,[1]; strain SR-7,400 µg/mL
same,Resistance level,[2]; [5],1.0 µg/mL
same,Resistance level,[2]; strain BG-1 (gen),1.0 µg/mL
same,Resistance level,[2]; strain BG-2 (gen),0.8 µg/mL
same,Resistance level,[2]; strain BG-3 (gen),1.0 µg/mL
same,Resistance level,[2]; strain BGR-1 (gen-rif),100 µg/mL
same,Resistance level,[2]; strain BGR-2 (gen-rif),120 µg/mL
same,Resistance level,[2]; strain BGR-3 (gen-rif),150 µg/mL
same,Concentration at which growth was inhibited completely,[3]; S-1 strain,10 μg per ml
same,Concentration at which growth was inhibited completely,[3]; SG-1 strain,10 μg per ml
same,Concentration at which growth was inhibited completely,[3]; SG-2 strain,10 μg per ml
same,MIC,[3]; [7],10 µg/mL
same,Concentration at which growth was inhibited completely,[3]; [6],10 μg per ml
same,MIC,[3]; strain S-1 (str),Rifampicin(10) μg/ml
same,MIC,[3]; strain SG-1 (str-gen),Rifampicin(10) μg/ml
same,MIC,[3]; strain SG-2 (str-gen),Rifampicin(10) μg/ml
same,Resistance level,[4]; S. lividans strain SR-1 (rif),200 µg/mL
same,Resistance level,[4]; S. lividans strain SR-2 (rif),400 µg/mL
same,Resistance level,[4]; S. lividans strain SR-3 (rif),400 µg/mL
same,Resistance level,[4]; [8],10 µg/mL
same,Resistance level,[4]; strain SRS-1 (rif-str),400 µg/mL
same,Resistance level,[4]; strain SRS-2 (rif-str),350 µg/mL
same,Resistance level,[4]; strain SRS-3 (rif-str),400 µg/mL
"[H]/N=C(/N)N[C@H]1[C@H](O)[C@@H](O)[C@H](O[C@@H]2O[C@@H](C)[C@](O)(C=O)[C@H]2O[C@@H]2O[C@@H](CO)[C@H](O)[C@@H](O)[C@@H]2NC)[C@@H](N/C(N)=N\[H])[C@@H]1O [Streptomycin, streptomycin]",Resistance level,[1]; S. coelicolor strain SR-1,50 µg/mL
same,Resistance level,[1]; S. coelicolor strain SR-2,50 µg/mL
same,Resistance level,[1]; S. coelicolor strain SR-3,50 µg/mL
same,Resistance level,[1]; strain 1147 (wild type),1 µg/mL
same,Resistance level,[1]; strain S-1,100 µg/mL
same,Resistance level,[1]; strain S-2,5 µg/mL
same,Resistance level,[1]; strain S-3,10 µg/mL
same,Resistance level,[1]; strain SG-1,100 µg/mL
same,Resistance level,[1]; strain SG-2,100 µg/mL
same,Resistance level,[1]; strain SG-3,100 µg/mL
same,Resistance level,[1]; strain SGR-1,100 µg/mL
same,Resistance level,[1]; strain SGR-2,100 µg/mL
same,Resistance level,[1]; strain SGR-3,50 µg/mL
same,Resistance level,[1]; strain SGR-4,50 µg/mL
same,Resistance level,[1]; strain SGR-5,50 µg/mL
same,Resistance level,[1]; strain SGR-6,100 µg/mL
same,Resistance level,[1]; strain SGe-1,100 µg/mL
same,Resistance level,[1]; strain SGe-2,100 µg/mL
same,Resistance level,[1]; strain SGe-3,100 µg/mL
same,Resistance level,[1]; strain SR-4,100 µg/mL
same,Resistance level,[1]; strain SR-5,100 µg/mL
same,Resistance level,[1]; strain SR-6,50 µg/mL
same,Resistance level,[1]; strain SR-7,50 µg/mL
same,MIC,[3]; [7],1 µg/mL
same,Concentration at which growth was inhibited completely,[3]; [6],1 μg per ml
same,Resistance level,[4]; S. lividans strain SR-1 (rif),1.0 µg/mL
same,Resistance level,[4]; S. lividans strain SR-2 (rif),0.8 µg/mL
same,Resistance level,[4]; S. lividans strain SR-3 (rif),1.0 µg/mL
same,Resistance level,[4]; [8],1.0 µg/mL
same,Resistance level,[4]; strain SRS-1 (rif-str),50 µg/mL
same,Resistance level,[4]; strain SRS-2 (rif-str),120 µg/mL
same,Resistance level,[4]; strain SRS-3 (rif-str),100 µg/mL
